Tests used:
[1] = test system: genotype 1b stable HCV replicon (Con1) in Huh-7-derived cells; assay: Stable subgenomic HCV replicon, genotype 1b, Renilla luciferase; assay type: cell-based; settings: Hepatitis C virus, stable replicon genotype 1b, 72 h, read-out: EC50 1B RLUC
In short: (§1)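 Replicons carry hRLuc-neo, EMCV IRES and NS3-NS5B with adaptive mutations: 1a H77 P1496L/S2204I, 1b Con1 E1202G/T1280I/K1846T, 4a ED43 Q1691R/S2204I. EC50 came from non-linear regression versus DMSO and a triple-inhibitor full-inhibition control.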

[2] = test system: genotype 1a stable HCV replicon (H77) in Huh-7-derived cells; assay: Stable subgenomic HCV replicon, genotype 1a, Renilla luciferase; assay type: cell-based; settings: Hepatitis C virus, stable replicon genotype 1a, 72 h, read-out: EC50 1A RLUC
In short: as §1

[3] = test system: genotype 2a stable HCV replicon (JFH-1) in Huh-7-derived cells; assay: Stable subgenomic HCV replicon, genotype 2a, Renilla luciferase; assay type: cell-based; settings: Hepatitis C virus, stable replicon genotype 2a, 72 h, read-out: EC50 2A RLUC
[4] = test system: genotype 3a stable HCV replicon (S52) in Huh-7-derived cells; assay: Stable subgenomic HCV replicon, genotype 3a, Renilla luciferase; assay type: cell-based; settings: Hepatitis C virus, 72 h, read-out: EC50 3A RLUC
[5] = test system: genotype 4a stable HCV replicon (ED43) in Huh-7-derived cells; assay: Stable subgenomic HCV replicon, genotype 4a, Renilla luciferase; assay type: cell-based; settings: Hepatitis C virus, 72 h, read-out: EC50 4A RLUC
In short: as §1

[6] = test system: NS3/4a protease inhibitor resistant variant R155K in genotype 1a transient HCV replicon; assay: Transient-transfected HCV replicon, genotype 1a R155K; assay type: cell-based; settings: Hepatitis C virus, 72 h, read-out: EC50 1A R155K
NS3 genotype 1b protease = target: T1, NS3 genotype 1b protease (Hepatitis C virus genotype 1b, UniProt Q9WMX2, E1202G); assay: Ki determination, NS3 protease genotype 1b (fluorogenic depsipeptide substrate); assay type: biochemical; settings: NS3 protease domain genotype 1b, NS4A peptide
T1 construct: Purified NS3 protease domain (amino acids 1-181) of the genotype 1b and 3a virus were generated as above; K3 hexahistidine tag (N); rTEV protease cleavage site (N); made in house; host or cells: E. coli BL21AI
T1 sequence (Q9WMX2 1027-1207 E1202G, other chains not shown): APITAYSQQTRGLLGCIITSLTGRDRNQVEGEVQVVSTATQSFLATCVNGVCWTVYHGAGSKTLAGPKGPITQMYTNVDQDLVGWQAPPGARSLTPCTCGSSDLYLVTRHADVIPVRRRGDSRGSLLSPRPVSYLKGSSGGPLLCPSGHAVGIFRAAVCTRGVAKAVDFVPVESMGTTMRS
In short: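 NS3 protease domain (aa 1-181), 50 pM (1b) or 200 pM (3a), with 20 μM NS4A peptide, pre-incubated 1 h with inhibitor (100 nM–5 pM); 4 μM (1b) or 2 μM (3a) FRET depsipeptide substrate, room temperature, pH-unspecified HEPES buffer with 40% glycerol, 10% DMSO. Steady-state rates at 90–120 min (ex 340/em 490); Morrison fit gave Ki^app, corrected to Ki via substrate/Km.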

[7] = test system: NS3/4a protease inhibitor resistant variant D168A in genotype 1b transient HCV replicon; assay: Transient-transfected HCV replicon, genotype 1b D168A; assay type: cell-based; settings: Hepatitis C virus, 72 h, read-out: EC50 1B D168A
[8] = test system: genotype 3a transient HCV replicon (S52) in Huh-7-derived cells; assay: Transient-transfected HCV replicon, genotype 3a wild type; assay type: cell-based; settings: Hepatitis C virus; transient-transfected replicon genotype 3a wild type, 72 h; read-out: EC50 3A WT

Compound	EC50 [1]	EC50 [2]	EC50 [3]	EC50 [4]	EC50 [5]	EC50 [6]	Ki (NS3 genotype 1b protease)	EC50 [7]	EC50 [8]
CC(C)(C)[C@@H]1NC(=O)O[C@@H]2C[C@@H]3C[C@@H]3[C@H]2CCCCCc2nc3ccc(F)cc3nc2O[C@@H]2C[C@@H](C(=O)N[C@]3(C(=O)NS(=O)(=O)C4(C)CC4)C[C@H]3C(F)F)N(C2)C1=O [Example 11, (1aS,2aR,6S,9S,11R,23aR,23bS)-6-tert-butyl-N-[(1R,2R)-2-(difluoromethyl)-1-{[(1-methylcyclopropyl)sulfonyl]carbamoyl}cyclopropyl]-15-fluoro-4,7-dioxo-1a,2,2a,4,5,6,7,10,11,19,20,21,22,23,23a,23b-hexadecahydro-1H,9H-8,11-methanocyclopropa[4′,5′]cyclopenta[1′,2′:18,19][1,10,3,6]dioxadiazacyclononadecino[11,12-b]quinoxaline-9-carboxamide]	1.3 nM	1.4 nM	2 nM	61 nM	1.2 nM	1.9 nM	0.02 nM	8.6 nM	9.7 nM
CC(C)(C)[C@@H]1NC(=O)O[C@@H]2C[C@@H]3C[C@@H]3[C@H]2CCCCCc2nc3ccc(F)cc3nc2O[C@@H]2C[C@@H](C(=O)N[C@]3(C(=O)NS(=O)(=O)C4CC4)C[C@H]3C(F)F)N(C2)C1=O [Example 12, (1aS,2aR,6S,9S,11R,23aR,23bS)-6-tert-butyl-N-[(1R,2R)-1-[(cyclopropylsulfonyl)carbamoyl]-2-(difluoromethyl)cyclopropyl]-15-fluoro-4,7-dioxo-1a,2,2a,4,5,6,7,10,11,19,20,21,22,23,23a,23b-hexadecahydro-1H,9H-8,11-methanocyclopropa[4′,5′]cyclopenta[1′,2′:18,19][1,10,3,6]dioxadiazacyclononadecino[11,12-b]quinoxaline-9-carboxamide]	1.3 nM	1.7 nM	2.6 nM	89 nM	1.4 nM	1.9 nM	0.02 nM	15.6 nM	22 nM
CC(C)(C)[C@@H]1NC(=O)O[C@@H]2C[C@@H]3C[C@@H]3[C@H]2CC/C=C/C(F)(F)c2nc3ccc(C#N)cc3nc2O[C@@H]2C[C@@H](C(=O)N[C@]3(C(=O)NS(=O)(=O)C4(C)CC4)C[C@H]3C(F)F)N(C2)C1=O [Example 13, (1aS,2aR,6S,9S,11R,20E,23aR,23bS)-6-tert-butyl-15-cyano-N-[(1R,2R)-2-(difluoromethyl)-1-{[(1-methylcyclopropyl)sulfonyl]carbamoyl}cyclopropyl]-19,19-difluoro-4,7-dioxo-1a,2,2a,4,5,6,7,10,11,19,22,23,23a,23b-tetradecahydro-1H,9H-8,11-methanocyclopropa[4′,5′]cyclopenta[1′,2′18,19][1,10,3,6]dioxadiazacyclononadecino[11,12-b]quinoxaline-9-carboxamide]	3 nM	3.4 nM	1.4 nM	7.2 nM	3.6 nM	2 nM	0.02 nM	1.1 nM	2.8 nM
CC(C)(C)[C@@H]1NC(=O)O[C@@H]2C[C@@H]3C[C@@H]3[C@H]2CCCCC(F)(F)c2nc3ccc(C#N)cc3nc2O[C@@H]2C[C@@H](C(=O)N[C@]3(C(=O)NS(=O)(=O)C4(C)CC4)C[C@H]3C(F)F)N(C2)C1=O [Example 14, (1aS,2aR,6S,9S,11R,23aR,23bS)-6-tert-butyl-15-cyano-N-[(1R,2R)-2-(difluoromethyl)-1-{[(1-methylcyclopropyl)sulfonyl]carbamoyl}cyclopropyl]-19,19-difluoro-4,7-dioxo-1a,2,2a,4,5,6,7,10,11,19,20,21,22,23,23a,23b-hexadecahydro-1H,9H-8,11-methanocyclopropa[4′,5′]cyclopenta [1′,2′:18,19][1,10,3,6]dioxadiazacyclononadecino[11,12-b]quinoxaline-9-carboxamide]	1.1 nM	1.4 nM	1.4 nM	5 nM	1.4 nM	0.69 nM	0.01 nM	0.65 nM	1.4 nM
CC(C)(C)[C@@H]1NC(=O)O[C@@H]2C[C@@H]3C[C@@H]3[C@H]2CCCCC(F)(F)c2nc3ccc(OC(F)F)cc3nc2O[C@@H]2C[C@@H](C(=O)N[C@]3(C(=O)NS(=O)(=O)C4CC4)C[C@H]3C(F)F)N(C2)C1=O [Example 16, (1aS,2aR,6S,9S,11R,23aR,23bS)-6-tert-butyl-N-[(1R,2R)-1-[(cyclopropylsulfonyl)carbamoyl]-2-(difluoromethyl)cyclopropyl]-15-(difluoromethoxy)-19,19-difluoro-4,7-dioxo-1a,2,2a,4,5,6,7,10,11,19,20,21,22,23,23a,23b-hexadecahydro-1H,9H-8,11-methanocyclopropa[4′,5′]cyclopenta [1′,2′:18,19][1,10,3,6]dioxadiazacyclononadecino[11,12-b]quinoxaline-9-carboxamide]	4.2 nM	3.8 nM	2.3 nM	127 nM	2.3 nM	2 nM	0.03 nM	7.9 nM	50 nM
CC(C)(C)[C@@H]1NC(=O)O[C@@H]2C[C@@H]3C[C@@H]3[C@H]2CCCCC(F)(F)c2nc3ccccc3nc2O[C@@H]2C[C@@H](C(=O)N[C@]3(C(=O)NS(=O)(=O)C4(C)CC4)C[C@H]3C(F)F)N(C2)C1=O [Example 17]	4.7 nM	5.8 nM	2.7 nM	26 nM	4.8 nM	2.9 nM	0.01 nM	2.7 nM	7.1 nM
CC(C)(C)[C@@H]1NC(=O)O[C@@H]2C[C@@H]3C[C@@H]3[C@H]2CCCCC(F)(F)c2nc3ccccc3nc2O[C@@H]2C[C@@H](C(=O)N[C@]3(C(=O)NS(=O)(=O)C4CC4)C[C@H]3C(F)F)N(C2)C1=O [Example 18]	4.1 nM	4.8 nM	2.6 nM	18 nM	4.2 nM	2.6 nM	0.01 nM	2.6 nM	4.9 nM
CC(C)(C)[C@@H]1NC(=O)O[C@@H]2C[C@@H]3C[C@@H]3[C@H]2CCCCCc2nc3ccc(Cl)cc3nc2O[C@@H]2C[C@@H](C(=O)N[C@]3(C(=O)NS(=O)(=O)C4CC4)C[C@H]3C(F)F)N(C2)C1=O [Example 19, (1aS,2aR,6S,9S,11R,23aR,23bS)-6-tert-butyl-15-chloro-N-[(1R,2R)-1-[(cyclopropylsulfonyl)carbamoyl]-2-(difluoromethyl)cyclopropyl]-4,7-dioxo-1a,2,2a,4,5,6,7,10,11,19,20,21,22,23,23a, 23b-hexadecahydro-1H,9H-8,11-methanocyclopropa[4′,5′]cyclopenta[1′,2′:18,19][1,10,3,6]dioxadiazacyclononadecino[11,12-b]quinoxaline-9-carboxamide]	1.3 nM	1.4 nM	3.1 nM	82 nM	1.8 nM	1.9 nM	0.02 nM	16 nM	17 nM
COc1ccc2nc3c(nc2c1)O[C@@H]1C[C@@H](C(=O)N[C@]2(C(=O)NS(=O)(=O)C4(C)CC4)C[C@H]2CC(F)F)N(C1)C(=O)[C@H](C(C)(C)C)NC(=O)O[C@@H]1C[C@@H]2C[C@@H]2[C@H]1CCCCC3(F)F [Example 20, (1aS,2aR,6S,9S,11R,23aR,23bS)-6-tert-butyl-N-[(1R,2S)-2-(2,2-difluoroethyl)-1-{[(1-methylcyclopropyl)sulfonyl]carbamoyl}cyclopropyl]-19,19-difluoro-15-methoxy-4,7-dioxo-1a,2,2a,4,5,6,7,10,11,19,20,21,22,23,23a,23b-hexadecahydro-1H,9H-8,11-methanocyclopropa[4′,5′]cyclopenta[1′,2′:18,19][1,10,3,6]dioxadiazacyclononadecino[11,12-b]quinoxaline-9-carboxamide]	5.9 nM	6 nM	5 nM	46 nM	5 nM	5 nM	0.04 nM	6.3 nM	12 nM

— patent US9617310B2 (priority 2013, dated 2017)
